row,SMILES,melting point
1,CC1(C)SC(=O)N(Cc2ccccc2[N+](=O)[O-])C1O (stereo not drawn),139 to 143 °C
2,C=Cc1ccc(NC(=O)OCC2(C)COC(=O)OC2)cc1,120 to 121 °C
3,NC(=O)c1cc(Cl)c(N[C@H]2CC[C@H](N)CC2)cc1F,160 to 162 °C
4,NS(=O)(=O)CCCOc1ccc2ncnn2n1,145 to 147 °C
5,N#Cc1ccc2c(c1)NC(=O)C(O)C2 (stereo not drawn),> 250 °C
6,COc1cc(OC)c2c(=O)[nH]c(-c3ccc(OCCNC(C)C)c(-c4ccc(S(C)=O)cc4)n3)nc2c1 (stereo not drawn),93 to 95 °C
7,CCSc1cnc(Oc2ccc(Cl)c(Cl)c2)cc1C#N,68 to 69 °C
8,Nc1ccnc(CSCCN2C(=O)c3ccccc3C2=O)n1,131 to 133 °C
9,CC(C)(C)OC(=O)N[C@@H](Cc1ccccc1)C(=O)CCl,101 to 102 °C
10,COc1ccc(CC(=O)NC(NC(=NC#N)Nc2ccccc2C)C(C)(C)C)cc1 (stereo not drawn),174 °C
11,Nc1nc(Cl)cc(Oc2ccc3c(c2)CCCCN3C(=O)Nc2cccc(C(F)(F)F)c2)n1,175 °C
12,COC(=O)c1ccc(Cc2cc3cc(Cl)ccc3n2S(C)(=O)=O)cc1,143 °C
13,CN1CCN(Cc2ccc(Nc3ccnc4cc(C(F)(F)F)ccc34)cc2)CC1,218 to 220 °C
14,CCCc1nc2c(N)nc(C)c(C)c2n1CC1(O)CCCCC1,214 to 216 °C
15,Oc1ccc(-c2ccc(-c3c(Cc4ccccc4)sc4ccccc34)cc2)cc1Br,54 to 56 °C
16,CCOC(=O)c1cn(-c2nonc2C)c2cc(F)c(F)cc2c1=O,178 to 180 °C
17,N#Cc1ccc(-c2cccc(C=O)c2O)cc1,120 to 121 °C
18,N#Cc1ccc(C=NO)c([N+](=O)[O-])c1,162 to 163 °C
19,CC(=O)Nc1ccccc1C1OC(=O)NC1=O (stereo not drawn),197 to 198 °C
20,COc1ccc(C=CC(=O)Nc2cc(Cl)ccc2C(=O)O)cc1OC,255 to 257 °C
21,CC(=O)SCC(C)C(=O)Nc1cncc(C(=O)O)c1 (stereo not drawn),154 to 158 °C
22,COC(=O)c1cccc(-c2nc(-c3ccc(C(F)(F)F)cc3)cs2)c1,142 to 143 °C
23,CC(Sc1nc(N)cc(Cl)n1)c1ccc2ccccc2c1 (stereo not drawn),55 to 58 °C
24,COC(=O)C1=C(c2ccc3c(c2)OCO3)c2ccc(OCc3ccccc3)cc2C1=O,140 to 141 °C
25,Cc1ccc(S(=O)(=O)N=[N+]=[N-])cc1,79 to 82.5 °C
26,COc1cc(C)c(C(=O)c2c(OC)ncc(Cl)c2C)c(OC)c1OC,92 to 94 °C

row,SMILES,melting point
1,CCN1C(=O)CCCc2cc(Nc3ncc(Cl)c(Nc4cc(Cl)ccc4OC)n3)c(OC)cc21,194 to 196 °C
2,CCOC(=O)/C=C(C)/C=C/C=C(\C)C1=Cc2cc(C(C)(C)C)ccc2OC1,129 °C
3,CCc1nc(N)nc(N)c1N1CCNCC1,204 to 207 °C
4,O=C(NCCc1cncn1CCc1ccccc1)[C@H]1CN(Cc2ccccc2)CCN1C(=O)NC1CCCCC1,64.4 °C
5,CN1CCOc2nc(Cl)c(Cl)nc21,170 to 172 °C
6,CC(=O)Nc1ccc(OCC(F)(F)F)cc1,140 to 141 °C
7,COc1ccc(-c2nc(Sc3cccc(OC)c3)[nH]c2-c2ccc(OC)cc2)cc1,101 °C
8,NC(=O)NN=Cc1ccc(Cc2ccccc2)cc1,118 to 120 °C
9,CCCCOC(=O)c1ccc(N2CCN(C)CC2)cc1,118 to 120 °C
10,CCOC(=O)C(=CNc1cccc(N2CCN(C)CC2)n1)C(=O)OCC,114 to 115 °C
11,CN(CC#CC1=Cc2ccccc2Sc2ccc(Cl)cc21)CCO,86 to 88 °C
12,O=P(O)(O)Cc1ccc(S(=O)(=O)c2ccccc2)cc1,217 to 219 °C
13,CN1CCNCCNCCCNCCNCC1,85 to 87 °C
14,COc1cc(/C(C#N)=C/c2ccc(C)c([N+](=O)[O-])c2)cc(OC)c1OC,162 to 163 °C
15,CN1C(=O)C2C3CCC(CC3)C2(c2ccc(F)c(F)c2)C1=O (stereo not drawn),133 to 136 °C
16,N#Cc1c(Nc2ccccc2)nn(Cc2ccccc2)c1N,139 to 140 °C
17,O=C(CCc1ccccc1)Nc1ccc2c(c1)C(=O)c1cc(NC(=O)CCc3ccccc3)ccc1C2=O,268 °C
18,CCc1cccc2c1CCN([C@@H]1CN3CCC1CC3)C2=O,> 290 °C
19,O=C(c1cccnc1)N1N=CCC1c1ccccc1 (stereo not drawn),100 to 102 °C
20,CCCCCCc1cc2c(=O)c(-c3ccc(OC)cc3)coc2cc1O,188 °C
21,Cc1nnc(-c2ccc3occ(-c4cccc(CO)c4)c3c2)o1,115 to 116 °C
22,O=C(c1ccccc1)N1CCN(c2ccc3nc4[nH]c(=O)[nH]c4cc3c2)CC1,> 300 °C
23,CC(=O)OC1CCC2(C)C(=CCC3C2CCC2(C)C(n4cnc5ccccc54)=CCC32)C1 (stereo not drawn),159 to 160 °C
24,CC(C)(C)c1ccc(/C=C/C(=O)Nc2ccc3occc3c2)cc1,149 to 150 °C
25,CCOC(=O)c1ccc(COCc2csc3nc(C(=O)NCc4ccccc4)[nH]c(=O)c23)cc1,229 °C
26,CC(O)(c1ccccc1)c1cc(Cl)ccc1N (stereo not drawn),93 to 94 °C

row,SMILES,melting point
1,O=C(NCCOC1CCCCO1)c1cc([N+](=O)[O-])cc([N+](=O)[O-])c1N(CCO)CCCl (stereo not drawn),106 to 108 °C
2,O=C(/C=C/c1cccnc1)NCCc1ccccc1O,170 to 172 °C
3,COc1cc2c(cc1C)C1(CO2)C(=O)Nc2ccccc21 (stereo not drawn),> 250 °C
4,COc1cc2ncnc(N3CCN(C(=O)Nc4ccccc4)CC3)c2cc1OC,121 to 123 °C
5,O=C1CCN(c2cc3c(cc2-c2ccccc2F)NC(=O)CC(c2cccc(-n4ccnc4)c2)=N3)CC1,230 °C
6,CCOC(=O)C=Nc1c(Cl)cccc1C(=O)O,175 °C
7,COc1cc2c(cc1OC)-c1cc(OC)c(OC)cc1C1CN3C(=O)CCC3C=C21 (stereo not drawn),252 to 254 °C
8,OC1(c2ccc3c(c2)OCO3)CCN(CC=Cc2ccccc2)CC1,114 to 115 °C
9,CC(=O)NCCN1CCN(c2cccccc2=O)CC1,117 to 118 °C
10,CC(C)c1ccc(-c2cn(-c3cccc(C(=O)O)c3)cn2)cc1,248 to 250 °C
11,CCOC(=O)C(C(=O)OCC)C(C#N)(c1ccc(F)cc1)c1ccc(F)cc1,90 to 91 °C
12,COc1ccccc(N(C)S(=O)(=O)c2ccc(C)cc2)c1=O,94.5 °C
13,CCCC(=O)Nc1ccc2c(c1)CCC(CN1CCC(O)(c3ccccc3)CC1)C2=O (stereo not drawn),196 to 198 °C
14,FC(F)(F)c1cc(Cl)c(-n2ncc(CS)n2)c(Cl)c1,58 to 60 °C
15,O=Cc1ccc(OCc2cccc(Cl)c2)cc1,51 to 54 °C
16,O=c1c(-c2cccc(C(F)(F)F)c2)c(Cl)cnn1-c1ccc(F)cc1,88 to 90 °C
17,CN(C)C(=O)c1cccnc1S(=O)(=O)Cl,114 to 117 °C
18,CC(=O)c1ccc(Oc2ccc(F)cc2)cc1,65 to 67 °C
19,N#Cc1nc(NCc2cnn(-c3c(Cl)cc(C(F)(F)F)cc3Cl)n2)[nH]c1C#N,213 to 215 °C
20,O=C(COc1cccnc1)C12CC3CC(CC(C3)C1)C2,73 to 75 °C
21,N#Cc1ncc(Cl)nc1Br,66 to 67 °C
22,COc1cc(C)cc(OC)c1-c1nc(=NO)c(=O)n(C)c2ccccc12,150 °C
23,Cc1oc(-c2ccccc2)nc1COc1ccc(COc2ccc(CC(=O)O)cc2)cc1,166 to 167 °C
24,NC(=O)c1cc(-c2cccc(Cl)c2)sc1N,190 to 192 °C
25,Brc1ccc(-c2coc(-c3ccccn3)n2)cn1,85 °C
26,CC(=O)OC1CCC2(C)C(=CCC3C2CCC2(C)C(n4ncnn4)=CCC32)C1 (stereo not drawn),155 to 156 °C

row,SMILES,melting point
1,"CC1CCC2CC(=O)N(Cc3ccccc3)C3OC4(C)CCC1C23OO4 (single isomer, unassigned; (-))",177 to 179 °C
2,Cc1sc2c(c1C(=O)c1ccc([N+](=O)[O-])cc1)CCC2C(=O)O (stereo not drawn),156 to 158 °C
3,CNc1ccc2c(c1)Sc1cc(NC)ccc1N2C(C)=O,137 °C
4,COc1ccc(S(=O)(=O)N2C(=O)C(c3ccccc3OC)(N3Cc4ccccc4C[C@H]3C(=O)N(C)C)c3cc(Cl)c(C)cc32)c(OC)c1 (stereo partly drawn),160 °C
5,O=C1CCC(N2C(=O)c3cccc(CNC(=O)OCc4ccccc4)c3C2=O)C(=O)N1 (stereo not drawn),166 to 168 °C
6,CN1Cc2cscc2N(CCc2ccccc2)c2ccccc21,53 to 56 °C
7,CCCCCCNC1=NS(=O)(=O)c2cc(Cl)c(Cl)cc2N1,282 to 286 °C
8,CS(=O)(=O)NC(=O)Nc1ccc(Cl)cc1,225 to 235 °C
9,O=C1CCCC(c2ccccc2)N1c1ccccc1 (stereo not drawn),123 to 125 °C
10,Cc1c(C=Cc2ccccc2)cccc1[N+](=O)[O-],75.9 °C
11,N#Cc1c(Cl)cccc1C(F)(F)F,45 to 47 °C
12,CCOC(=O)N1CCc2nnc(NN=C(C)C)cc2C1,171 to 174 °C
13,CCC(=O)NCCC1CCc2ccc3nc(C)oc3c21 (stereo not drawn),111 to 113 °C
14,CCC1(CC)C(=O)N(C(C)(C)C)CC(C)(C)N1C(C)c1ccc(C(C)=O)cc1 (stereo not drawn),91 to 94 °C
15,N#Cc1c(N2CCc3ccccc3CC2)nc(=O)[nH]c1OCC(F)(F)F,196 to 198 °C
16,Cn1c(-c2ccccc2)nc2ncnn2c1=S,246 to 248 °C
17,CN(C)CCC1(CO)c2ccccc2N(C)c2ccc(Cl)cc21 (stereo not drawn),100 °C
18,CCOC(=O)Nc1cccc(C)c1C(=O)OCC,38.5 to 39.5 °C
19,CN(C)c1nn(-c2c(Cl)cc(C(F)(F)F)cc2Cl)c(=O)n1C,105 to 107 °C
20,COc1ccc(C(=O)C2C(=O)N(C(N)=O)c3ccc(Cl)cc32)s1 (stereo not drawn),180 to 182 °C
21,Cc1ccc(S(=O)(=O)N2C(=O)c3cc4c(cc3[C@H]3[C@@H](C=O)[C@H](O[Si](C)(C)C(C)(C)C)[C@H]5OC(C)(C)O[C@H]5[C@@H]32)OCO4)cc1,> 200 °C
22,CC(C)C1(COC(C)(C)C)Cc2cc(OCC(=O)O)c(Cl)c(Cl)c2C1=O (stereo not drawn),148 to 149 °C
23,CCN(C(=O)C1CC1)c1cccc(-c2ccnc3c(C#N)cnn23)c1,166 to 168 °C
24,CCCCCCCCC(=O)OCC(O)COC(=O)CCCCCCCC,30 to 31 °C
25,COCc1noc(-c2ncn3c2CN(C)C(=O)c2cc(F)ccc2-3)n1,192 to 194 °C

# From a melting point compilation (Tetko et al.; mined from patent text by program, amines drawn as free bases though some values may be those of a salt)
